How the values were obtained:
Type in all cases: in vivo
corn [1] = assay: Test Example 3: soil treatment, effect on crop; conditions: dose 6.3 g/a
Description: (§1) Test on the Herbicidal Effects in Soil Treatment
(§2) Sterilized diluvial soil was put in plastic boxes with a length of 21 cm, a width of 13 cm and a depth of 7 cm, and seeds of barnyardgrass, large crabgrass, giant foxtail, wild oat, blackgrass, velvetleaf, common ragweed, redroot pigweed, common lambsquater, posumbu knotweed, common chickweed corn, soybean, rice, wheat and sugar beet were sown in spots and covered with an about 1.5 cm-thick soil layer. Emulsifiable concentrates containing compounds of the present invention formulated in accordance with Formulation Example 2 were uniformly applied to the soil surfaces at predetermined doses through a small sprayer after dilute with water. Three weeks after the application, the herbicidal effects against various plants were determined on the same evaluation scale as in Test Example 1.
(§3) A: barnyardgrass, B: bulrush, C: ducksalad, D: large crabgrass, E: giant foxtail, F: wild oat, G: water foxtail, H: Italian ryegrass, I: velvetleaf, J: common ragweed, K: redroot pigweed, L: common lambsquater, M: posumbu knotweed, N: common chickweed, O: beadstraw, a: transplanted rice, b: corn, c: soybean, d: direct-seeded rice, e: wheat, f: sugar beet.
(§4) The doses (g/a) represents the amounts in g per 1 are (a) applied after adjustment of concentration adjustment.

wheat [2] = assay: Test Example 3: soil treatment, effect on crop; conditions: dose 6.3 g/a
Description: as §1, §2, §3, §4

soybean [3] = assay: Test Example 3: soil treatment, effect on crop; conditions: dose 6.3 g/a
Description: as §1, §2, §3, §4

sugar beet [4] = assay: Test Example 3: soil treatment, effect on crop; conditions: dose 6.3 g/a
Description: as §1, §2, §3, §4

direct-seeded rice [5] = assay: Test Example 3: soil treatment, effect on crop; conditions: dose 6.3 g/a
Description: as §1, §2, §3, §4

transplanted rice = assay: Test Example 1: preemergence treatment under submerged conditions, effect on crop; conditions: dose 2.52 g/a
In short: (§5)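 Alluvial soil was flooded to 4 cm, sown with barnyardgrass, bulrush and ducksalad, and planted with 2.5-leaf rice seedlings. On the seeding day, water-diluted emulsifiable concentrates were applied to the water surface at set doses (g/a). After three weeks in a 25 to 30° C. greenhouse, mortality was scored 0–5.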

barnyardgrass [6] = assay: Test Example 4: herbicidal effect in foliage treatment; conditions: dose 6.3 g/a, three weeks after the application
In short: (§6)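 Sowing in sterilized diluvial soil, ~1.5 cm cover; growth 14 d, 25–30° C greenhouse; foliar spray of water-diluted EC at predetermined g/a; scoring 3 wk later on graded scale.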

large crabgrass [7] = assay: as above; conditions: dose 6.3 g/a, three weeks after the application
In short: as §6

beadstraw = assay: as above; conditions: dose 6.3 g/a, three weeks after the application
In short: as §6

common ragweed [8] = assay: as above; conditions: dose 6.3 g/a, three weeks after the application
In short: as §6

water foxtail [9] = assay: as above; conditions: dose 6.3 g/a, three weeks after the application
In short: as §6

giant foxtail [10] = assay: as above; conditions: dose 6.3 g/a, three weeks after the application
In short: as §6

common chickweed [11] = assay: as above; conditions: dose 6.3 g/a, three weeks after the application
In short: as §6

Italian ryegrass [12] = assay: as above; conditions: dose 6.3 g/a, three weeks after the application
In short: as §6

wild oat [13] = assay: as above; conditions: dose 6.3 g/a, three weeks after the application
In short: as §6

common lambsquater [14] = assay: as above; conditions: dose 6.3 g/a, three weeks after the application
In short: as §6

bulrush [15] = assay: Test Example 2: herbicidal effects during the vegetation period under submerged conditions; conditions: treatment during the vegetation period under submerged conditions; dose 2.52 g/a
In short: (§7)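 Barnyardgrass, bulrush and ducksalad were co-sown in alluvial soil flooded to 4 cm and grown in a greenhouse at 25 to 30° C. At the 1- or 2-leaf stage, water-diluted emulsifiable concentrates went onto the water surface at set doses (g/a). Herbicidal effect was scored three weeks later on a graded scale.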

barnyardgrass [16] = assay: as above; conditions: treatment during the vegetation period under submerged conditions; dose 2.52 g/a
In short: as §7

ducksalad [17] = assay: as above; conditions: treatment during the vegetation period under submerged conditions; dose 2.52 g/a
In short: as §7

bulrush [18] = assay: Test Example 1: herbicidal effects in preemergence treatment under submerged conditions; conditions: dose 2.52 g/a
In short: as §5

barnyardgrass [19] = assay: as above; conditions: dose 2.52 g/a
In short: as §5

ducksalad [20] = assay: as above; conditions: dose 2.52 g/a
In short: as §5

barnyardgrass [21] = assay: Test Example 3: herbicidal effects in soil treatment; conditions: dose 6.3 g/a
In short: (§8)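 Seeds were sown in sterilized diluvial soil and covered with about 1.5 cm of soil. Compounds, formulated as emulsifiable concentrates and diluted with water, were sprayed evenly over the soil surface at set doses in g/a. Herbicidal effect was scored on a rating scale three weeks later.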

large crabgrass [22] = assay: as above; conditions: dose 6.3 g/a
In short: as §8

common ragweed [23] = assay: as above; conditions: dose 6.3 g/a
In short: as §8

water foxtail [24] = assay: as above; conditions: dose 6.3 g/a
In short: as §8

giant foxtail [25] = assay: as above; conditions: dose 6.3 g/a
In short: as §8

common chickweed [26] = assay: as above; conditions: dose 6.3 g/a
In short: as §8

Italian ryegrass [27] = assay: as above; conditions: dose 6.3 g/a
In short: as §8

wild oat [28] = assay: as above; conditions: dose 6.3 g/a
In short: as §8

common lambsquater [29] = assay: as above; conditions: dose 6.3 g/a
In short: as §8

corn [30] = assay: Test Example 4: foliage treatment, effect on crop; conditions: dose 6.3 g/a, three weeks after the application
Description: (§9) Test on the Herbicidal Effect in Foliage Treatment
as §2, with “chickweed,” for “chickweed”, “The boxes were placed in a greenhouse at 25 to 30° C. to grow the plants. After 14 days, emulsifiable” for “Emulsifiable”, “foliage” for “soil surfaces”, “diluted” for “dilute”
as §3, §4

wheat [31] = assay: Test Example 4: foliage treatment, effect on crop; conditions: dose 6.3 g/a, three weeks after the application
Description: as §9
as §2, with “chickweed,” for “chickweed”, “The boxes were placed in a greenhouse at 25 to 30° C. to grow the plants. After 14 days, emulsifiable” for “Emulsifiable”, “foliage” for “soil surfaces”, “diluted” for “dilute”
as §3, §4

soybean [32] = assay: Test Example 4: foliage treatment, effect on crop; conditions: dose 6.3 g/a, three weeks after the application
Description: as §9
as §2, with “chickweed,” for “chickweed”, “The boxes were placed in a greenhouse at 25 to 30° C. to grow the plants. After 14 days, emulsifiable” for “Emulsifiable”, “foliage” for “soil surfaces”, “diluted” for “dilute”
as §3, §4

sugar beet [33] = assay: Test Example 4: foliage treatment, effect on crop; conditions: dose 6.3 g/a, three weeks after the application
Description: as §9
as §2, with “chickweed,” for “chickweed”, “The boxes were placed in a greenhouse at 25 to 30° C. to grow the plants. After 14 days, emulsifiable” for “Emulsifiable”, “foliage” for “soil surfaces”, “diluted” for “dilute”
as §3, §4

direct-seeded rice [34] = assay: Test Example 4: foliage treatment, effect on crop; conditions: dose 6.3 g/a, three weeks after the application
Description: as §9
as §2, with “chickweed,” for “chickweed”, “The boxes were placed in a greenhouse at 25 to 30° C. to grow the plants. After 14 days, emulsifiable” for “Emulsifiable”, “foliage” for “soil surfaces”, “diluted” for “dilute”
as §3, §4

Q: Which results are given for `CCOC(=O)N(c1ccccc1CN1CCOCCC1=O)S(=O)(=O)C(F)(F)F` [Compound V-2]?
A: effect on crop, b: corn (corn [1]): 0 (mortality of less than 5% (almost ineffective)); effect on crop, e: wheat (wheat [2]): 0 (mortality of less than 5% (almost ineffective)); effect on crop, c: soybean (soybean [3]): 0 (mortality of less than 5% (almost ineffective)); effect on crop, f: sugar beet (sugar beet [4]): 4 (mortality of at least 70% and less than 90%); effect on crop, d: direct-seeded rice (direct-seeded rice [5]): 0 (mortality of less than 5% (almost ineffective)); a: transplanted rice, effect on crop (evaluation scale 0-5) (transplanted rice): 0 (mortality of less than 5% (almost ineffective)); A: barnyardgrass, herbicidal effect (barnyardgrass [6]): 5 (mortality of 90% or above (nearly complete death)); D: large crabgrass, herbicidal effect (large crabgrass [7]): 2 (mortality of at least 20% and less than 40%); O: beadstraw, herbicidal effect (beadstraw): 3 (mortality of at least 40% and less than 70%); J: common ragweed, herbicidal effect (common ragweed [8]): 5 (mortality of 90% or above (nearly complete death)); G: water foxtail, herbicidal effect (water foxtail [9]): 5 (mortality of 90% or above (nearly complete death)); E: giant foxtail, herbicidal effect (giant foxtail [10]): 4 (mortality of at least 70% and less than 90%); N: common chickweed, herbicidal effect (common chickweed [11]): 4 (mortality of at least 70% and less than 90%); H: Italian ryegrass, herbicidal effect (Italian ryegrass [12]): 0 (mortality of less than 5% (almost ineffective)); F: wild oat, herbicidal effect (wild oat [13]): 0 (mortality of less than 5% (almost ineffective)); L: common lambsquater, herbicidal effect (common lambsquater [14]): 5 (mortality of 90% or above (nearly complete death)); B: bulrush, herbicidal effect (evaluation scale 0-5) (bulrush [15]): 5 (mortality of 90% or above (nearly complete death)); A: barnyardgrass, herbicidal effect (evaluation scale 0-5) (barnyardgrass [16]): 4 (mortality of at least 70% and less than 90%); C: ducksalad, herbicidal effect (evaluation scale 0-5) (ducksalad [17]): 5 (mortality of 90% or above (nearly complete death)); B: bulrush, herbicidal effect (evaluation scale 0-5) (bulrush [18]): 5 (mortality of 90% or above (nearly complete death)); A: barnyardgrass, herbicidal effect (evaluation scale 0-5) (barnyardgrass [19]): 5 (mortality of 90% or above (nearly complete death)); C: ducksalad, herbicidal effect (evaluation scale 0-5) (ducksalad [20]): 5 (mortality of 90% or above (nearly complete death)); herbicidal effect, A: barnyardgrass (barnyardgrass [21]): 4 (mortality of at least 70% and less than 90%); herbicidal effect, D: large crabgrass (large crabgrass [22]): 1 (mortality of at least 5% and less than 20%); herbicidal effect, J: common ragweed (common ragweed [23]): 5 (mortality of 90% or above (nearly complete death)); herbicidal effect, G: water foxtail (water foxtail [24]): 5 (mortality of 90% or above (nearly complete death)); herbicidal effect, E: giant foxtail (giant foxtail [25]): 3 (mortality of at least 40% and less than 70%); herbicidal effect, N: common chickweed (common chickweed [26]): 5 (mortality of 90% or above (nearly complete death)); herbicidal effect, H: Italian ryegrass (Italian ryegrass [27]): 0 (mortality of less than 5% (almost ineffective)); herbicidal effect, F: wild oat (wild oat [28]): 0 (mortality of less than 5% (almost ineffective)); herbicidal effect, L: common lambsquater (common lambsquater [29]): 5 (mortality of 90% or above (nearly complete death)); b: corn, effect on crop (corn [30]): 1 (mortality of at least 5% and less than 20%); e: wheat, effect on crop (wheat [31]): 0 (mortality of less than 5% (almost ineffective)); c: soybean, effect on crop (soybean [32]): 3 (mortality of at least 40% and less than 70%); f: sugar beet, effect on crop (sugar beet [33]): 3 (mortality of at least 40% and less than 70%); d: direct-seeded rice, effect on crop (direct-seeded rice [34]): 3 (mortality of at least 40% and less than 70%)
